In paper PMC6222927, “Aminobenzosuberone Scaffold as a Modular Chemical Tool for the Inhibition of Therapeutically Relevant M1 Aminopeptidases” (Molecules : A Journal of Synthetic Chemistry and Natural …, 2018) one finds Ki data, which are given here for 1 molecule.

The target of the assay is T1, P. falciparum rPfAM1 (Plasmodium falciparum, UniProt O96935).
T1 construct: made in house; host or cells: Escherichia coli Rosetta 2 (DE3)
T1 sequence (O96935 1-1085): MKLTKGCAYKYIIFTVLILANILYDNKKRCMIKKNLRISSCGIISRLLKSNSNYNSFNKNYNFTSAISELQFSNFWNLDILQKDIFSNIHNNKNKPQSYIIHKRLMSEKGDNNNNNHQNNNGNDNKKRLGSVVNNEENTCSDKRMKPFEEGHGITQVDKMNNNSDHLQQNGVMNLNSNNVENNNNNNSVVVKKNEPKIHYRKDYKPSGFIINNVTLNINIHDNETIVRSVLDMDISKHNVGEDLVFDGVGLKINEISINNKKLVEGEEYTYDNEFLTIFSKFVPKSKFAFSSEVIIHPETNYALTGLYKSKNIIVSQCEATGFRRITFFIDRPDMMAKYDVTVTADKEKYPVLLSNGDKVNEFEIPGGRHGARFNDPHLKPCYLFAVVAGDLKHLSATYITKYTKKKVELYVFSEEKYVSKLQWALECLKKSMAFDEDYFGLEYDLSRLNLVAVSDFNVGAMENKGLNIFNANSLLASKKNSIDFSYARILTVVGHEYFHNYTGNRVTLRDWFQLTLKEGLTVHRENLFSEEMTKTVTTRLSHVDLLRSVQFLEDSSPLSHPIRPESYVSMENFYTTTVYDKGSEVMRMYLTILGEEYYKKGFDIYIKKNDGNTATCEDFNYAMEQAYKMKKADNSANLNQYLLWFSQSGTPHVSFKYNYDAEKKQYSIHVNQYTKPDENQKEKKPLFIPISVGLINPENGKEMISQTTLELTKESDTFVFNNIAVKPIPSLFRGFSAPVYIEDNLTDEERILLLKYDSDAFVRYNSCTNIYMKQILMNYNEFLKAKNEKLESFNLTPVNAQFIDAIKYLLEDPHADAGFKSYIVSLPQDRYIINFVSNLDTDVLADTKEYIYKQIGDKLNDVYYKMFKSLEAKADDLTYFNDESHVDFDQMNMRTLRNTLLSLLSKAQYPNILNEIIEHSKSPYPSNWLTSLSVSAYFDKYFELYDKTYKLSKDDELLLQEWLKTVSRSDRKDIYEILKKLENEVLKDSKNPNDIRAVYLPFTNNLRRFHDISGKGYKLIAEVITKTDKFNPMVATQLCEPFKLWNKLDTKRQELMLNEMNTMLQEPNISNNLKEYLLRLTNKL
Put plainly: biochemical. The assay is classed as biochemical. As for the experimental part:
Initial velocities were measured with increasing concentrations of inhibitors and Ki values were determined by Dixon plots in triplicate.

For the molecule `NC1CCc2c(Br)cccc2CC1=O` (stereo not shown) [21e], the Ki (commonly a dissociation constant, usually derived from enzyme kinetics or from competition with a known ligand) came to 1000 ± 40 nM.
